For one data set, the target named is Nicotinic acetylcholine. The data set is described as follows: Pharmacological screen, nicotinic acetylcholine receptor binding. On the procedure:
2.4. Plasma LLOQ/Precision […]
of 10 ng/mL. […] ACN (200 µL) […]
was added and the solution was vortex mixed. The remaining mixture was centrifuged at 10,000 rpm […]
The final concentration was 1 ng/mL. […]
signal to noise ratio of three.
2.6. Brain LLOQ Accuracy/Precision
Aliquots (5 × 200 µL) were […]
transferred to 1.5 mL microcentrifuge tubes.
ACN (300 µL) was added and […]
the solution was vortex mixed. […] 200 µL
The solution was vortex mixed again and analysed by HPLC. Final concentrations were 12.5, 125 ng/mL.
2.7. Pharmacological Screening of N-Methyl Bupropion and Bupropion […]
nicotinic acetylcholine receptor [5,6] and SERT [7,8]. The specific nicotinic acetylcholine assays are […]
and nicotinic acetylcholine α7 [12].
3. Results Method Validation […]
diluent solutions separately.

Data set [1] has as its target T1, Norepinephrine transporter (NET) (Homo sapiens, UniProt P23975).
T1 construct: MDS Pharma Services Taiwan
Nature of the data set: Pharmacological screen, norepinephrine transporter. As to conditions: for nH (Hill coefficient): NET. In kind it is binding.

The conditions of data set [2]: cited from earlier work.
On the set-up of data set [3]: method as in earlier work. Conditions: plasma samples; cited from earlier work.
Data set [4] is described as follows: Aqueous pH stability profile at 40 °C.
Data set [5] addresses Muscarinic non -selective, central. Nature of the data set: Pharmacological screen, muscarinic receptor binding. Conditions: for Ki: Cheng and Prusoff.
Data set [6] in a line: Screening incubation in USP simulated gastric fluid (SGF). As to conditions: incubation 37 °C, one hour, n = 2; <LOD = bupropion, its metabolites or other prodrugs not detected; LOD 0.1 ng/mL. The method, then:
USP simulated gastric fluid preparation. Sodium chloride (0.02 g) and purified pepsin (0.032 g) that is derived from porcine stomach mucosa with an activity of 800 to 2,500 units per mg of protein were dissolved in 0.07 mL of concentrated hydrochloric acid and sufficient water to make 10 mL.
(§1) Pepsin is most efficient at cleaving peptide bonds between hydrophobic and aromatic amino acids such as phenylalanine, tryptophan and tyrosine. In order to simulate the pH and digestive enzymes of the stomach, USP simulated gastric fluid (SGF) was used. Conditions in the intestine were simulated using USP simulated intestinal fluid (SIF).
(§2) One hour metabolism or hydrolysis was considered to be sufficient time to generate detectable levels of metabolites, bearing in mind the likely exposure time in vivo. A blank media was used in each analysis to subtract a background from each LC-MS sample chromatogram. A t0 sample was also used to identify impurities related to each prodrug.
(§3) After one hour incubation of each compound in the selected media, the mixture was quenched with acetonitrile and the sample was centrifuged to remove precipitated proteins. The supernatant solution was analyzed immediately by LC-MS using data dependent acquisition analysis.
(§4) This transformation is commonly used to assess activity of oxidative enzyme CYP2B6 in human liver and intestinal microsomes. […] It was important to report if any of the other prodrugs were detected if for instance a possible multistep-prodrug was found.

Data set [7] can be described thus: Michaelis-Menten kinetics of bupropion formation in pooled human liver microsomes. The format is in vitro ADME. Conditions: pooled HLM 0.1 mg/mL, substrate 1–500 µM, 20 min, 37 °C, n = 6. On the procedure: Microsomes, NADPH regenerating solutions A and B were thawed rapidly to 37 °C, and then kept on ice until ready for use. Substrate solutions were prepared (1–500 µM) where the maximum concentration of DMSO was 1%, and the concentration of microsomes, NADPH regenerating solution B and phosphate buffer was fixed. After incubation for 5 min, NADPH regenerating solution A was added and the metabolism was initiated. Final volume was 100 μL. The tube was inverted twice and vortex mixed. The final concentrations of prodrug in this solution was 1–500 µM, HLM (0.1 mg/mL) or HIM (0.02 mg/mL), NADP^+ (1.3 mM), glucose-6-phosphate dehydrogenase (0.4 U/mL) and 1.0% DMSO. This solution was incubated for 20 min at 37 °C. The reaction was quenched by addition of 100 µL of acetonitrile. The mixture was centrifuged at 10,000 × g for 10 min. The supernatant was analyzed by LC-MS analysis.
For orientation: Liver microsomes are a subcellular fraction often used to study metabolism.

The nature of data set [8]: Screening incubation in pooled human plasma (PHP). The format is in vitro ADME. Conditions: incubation 37 °C, one hour, n = 2; <LOD = bupropion, its metabolites or other prodrugs not detected; LOD 0.1 ng/mL. The text has this:
Pooled human plasma solution preparation. Citrated human plasma was pooled together from three separate donors.
Finally, pooled human plasma (PHP) was used to evaluate the prodrug stability/activation in blood since the plasma fraction contains much of the hydrolase activity in blood.

A short description of data set [9]: Screening incubation in USP simulated intestinal fluid (SIF). Conditions: incubation 37 °C, one hour, n = 2; <LOD = bupropion, its metabolites or other prodrugs not detected; LOD 0.1 ng/mL. The method, then:
USP simulated intestinal fluid preparation. Monobasic potassium phosphate (0.068 g) was dissolved in 2.5 mL of water and mixed. Sodium hydroxide (0.77 mL of 0.2 M) and water (5.0 mL) were added. Pancreatin (0.1 g) was added and the pH adjusted with either 0.2 M sodium hydroxide or 0.2 M hydrochloric acid to a pH of 6.8 ± 0.1. The solution was diluted to 10 mL with water.
as §1, §2, §3, §4

For data set [10], the target named is T2, Serotonin transporter (SERT) (Homo sapiens, UniProt P31645).
T2 sequence (P31645 whole entry): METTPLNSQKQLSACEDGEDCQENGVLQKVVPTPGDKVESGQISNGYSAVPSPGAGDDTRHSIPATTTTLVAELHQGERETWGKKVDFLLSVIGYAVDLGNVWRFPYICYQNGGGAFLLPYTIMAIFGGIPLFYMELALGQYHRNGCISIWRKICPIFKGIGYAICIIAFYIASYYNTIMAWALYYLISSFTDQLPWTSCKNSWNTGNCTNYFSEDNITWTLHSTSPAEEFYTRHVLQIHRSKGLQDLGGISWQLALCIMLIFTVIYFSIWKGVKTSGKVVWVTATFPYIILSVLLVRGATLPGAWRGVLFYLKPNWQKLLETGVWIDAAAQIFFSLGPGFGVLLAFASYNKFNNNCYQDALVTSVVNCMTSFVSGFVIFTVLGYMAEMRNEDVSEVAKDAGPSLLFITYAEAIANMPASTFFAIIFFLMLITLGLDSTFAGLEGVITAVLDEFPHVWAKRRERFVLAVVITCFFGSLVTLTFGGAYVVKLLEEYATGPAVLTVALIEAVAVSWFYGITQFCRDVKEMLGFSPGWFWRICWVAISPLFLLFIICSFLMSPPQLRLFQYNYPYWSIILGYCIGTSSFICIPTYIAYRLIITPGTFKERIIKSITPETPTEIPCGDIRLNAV
The target in data set [11] is T2, Serotonin transporter (SERT). Nature of the data set: biochemical.
Data set [12] deals with T3, Dopamine active transporter (DAT) (Homo sapiens, UniProt Q01959).
T3 construct: MDS Pharma Services Taiwan
T3 sequence (Q01959 whole entry): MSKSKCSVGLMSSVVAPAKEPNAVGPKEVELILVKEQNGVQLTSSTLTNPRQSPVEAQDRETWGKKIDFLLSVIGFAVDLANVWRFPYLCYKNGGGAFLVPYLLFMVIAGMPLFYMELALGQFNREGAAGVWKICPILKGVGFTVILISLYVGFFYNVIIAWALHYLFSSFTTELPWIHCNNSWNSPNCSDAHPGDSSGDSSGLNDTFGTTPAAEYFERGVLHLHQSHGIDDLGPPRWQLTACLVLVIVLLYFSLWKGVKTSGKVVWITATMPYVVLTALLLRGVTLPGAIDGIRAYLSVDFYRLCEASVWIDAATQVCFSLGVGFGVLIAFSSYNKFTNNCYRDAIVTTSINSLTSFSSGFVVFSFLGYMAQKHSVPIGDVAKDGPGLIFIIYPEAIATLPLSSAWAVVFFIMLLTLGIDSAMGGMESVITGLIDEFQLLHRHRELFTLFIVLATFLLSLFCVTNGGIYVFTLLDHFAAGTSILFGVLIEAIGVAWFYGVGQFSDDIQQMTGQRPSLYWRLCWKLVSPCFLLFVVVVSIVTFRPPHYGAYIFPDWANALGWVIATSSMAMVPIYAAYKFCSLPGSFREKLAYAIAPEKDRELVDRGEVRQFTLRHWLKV
The data set is described as follows: Pharmacological screen, dopamine transporter. The format is binding.

The nature of data set [13]: Microsomal metabolic stability screen, pooled human intestinal microsomes (HIM). In kind it is in vitro ADME. As to conditions: 10 µM prodrug, 0.02 mg/mL HIM, NADPH regenerating system, 37 °C, 60 min, n = 2; LOD 0.1 ng/mL. The method, then: Human intestinal microsome (HIM) stock solution preparation. HIM (0.2 mL) stock was added to PBS solution (9.8 mL). Final concentration; 0.2 mg/mL.
(§5) Microsomes, NADPH regenerating solutions A and B were thawed rapidly to 37 °C, then kept on wet ice until ready for use. A stock solution of the prodrug (5 mM) was prepared in ACN. To a 1.7 mL microcentrifuge tube in a 37 °C water bath was added the phosphate buffered saline solution (349 µL), the NADPH regenerating solution A (50 µL), the NADPH regenerating solution B (50 µL), and the prodrug solution (1 µL). After incubation for 5 min, microsome solution (50 µL) was added and the metabolism was initiated. The tube was vortex mixed. The final concentrations in this solution was 10 µM prodrug, 0.1 mg/mL HLM or 0.02 mg/mL HIM, 1.3 mM NADP^+, 0.4 U/mL glucose-6-phosphate dehydrogenase and 0.2% organic solvent. This solution was incubated for 60 min at 37 °C. The reaction was quenched by addition of acetonitrile (500 µL). The mixture was centrifuged at 10,000 × g for 10 min. The supernatant was analyzed by LC-MS analysis.
The intestinal cells contain cytochome P450 enzymes, flavin monoxygenases, esterases and UDP glucuroyl transferases. Condition III involved the use of pooled human intestinal microsomes (HIM) in order to simulate the potential metabolism that occurs during absorption and passage through the intestinal wall.

Data set [14] can be described thus: Microsomal metabolic stability screen, pooled human liver microsomes (HLM). Conditions: 10 µM prodrug, 0.1 mg/mL HLM, NADPH regenerating system, 37 °C, 60 min, n = 2; LOD 0.1 ng/mL. The format is in vitro ADME. The method, then:
Human liver microsome (HLM) stock solution preparation. HLM (0.5 mL) stock was added to PBS solution (9.5 mL). Final concentration; 1 mg/mL. The PBS solution was prepared by addition of one USP PBS tablet (Sigma-Aldrich catalogue number P4417) dissolved in 200 mL deionised water.
as §5
After passing through the intestinal membrane into the portal circulation the prodrug quickly enters the liver. This metabolic condition was simulated in the present work by using pooled human liver microsomes (HLM).

By IC50 is commonly meant the concentration needed to halve the response being measured. Read a low IC50 as inhibition by little substance. A word on the Ki: it is a dissociation constant, usually derived from enzyme kinetics or from competition with a known ligand.

Structures are written as SMILES. Where a name gives a salt, the structure may show the parent alone.

T1 sequence (P23975 whole entry): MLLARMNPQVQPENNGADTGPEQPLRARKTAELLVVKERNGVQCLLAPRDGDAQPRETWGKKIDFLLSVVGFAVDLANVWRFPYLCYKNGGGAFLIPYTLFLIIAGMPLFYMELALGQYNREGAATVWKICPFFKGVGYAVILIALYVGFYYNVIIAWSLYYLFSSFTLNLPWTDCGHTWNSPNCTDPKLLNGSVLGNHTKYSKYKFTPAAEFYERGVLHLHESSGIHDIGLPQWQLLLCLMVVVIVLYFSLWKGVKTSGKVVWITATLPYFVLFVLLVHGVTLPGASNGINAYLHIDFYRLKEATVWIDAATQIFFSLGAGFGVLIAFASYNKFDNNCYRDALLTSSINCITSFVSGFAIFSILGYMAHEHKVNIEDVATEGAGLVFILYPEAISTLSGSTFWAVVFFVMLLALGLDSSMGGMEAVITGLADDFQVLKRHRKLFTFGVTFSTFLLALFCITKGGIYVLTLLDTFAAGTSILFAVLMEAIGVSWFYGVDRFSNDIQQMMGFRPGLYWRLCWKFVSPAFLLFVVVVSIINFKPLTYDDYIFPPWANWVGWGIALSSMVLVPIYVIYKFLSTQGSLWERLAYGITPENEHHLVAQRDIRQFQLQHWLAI

Turning to `CC(NC(C)(C)C)C(=O)c1cccc(Cl)c1` (racemic) [Bupropion, Rac-bupropion hydrochloride, reference compound], at Nicotinic acetylcholine (Nicotinic acetylcholine), the 50% inhibitory concentration (IC50) is above 100 µM. In data set [1], the “nH (Hill coefficient)” value stood at 0.835. In data set [2], the “aqueous stability profile above pH 5” value is reported as “poor stability profile”. The “sample stability in plasma (pH)” value in data set [3] is “stable at low pH”. Also, in [4], the “aqueous degradation rate above pH 12” value is on record as “rate of degradation increases significantly” and the “aqueous stability / degradation rate below pH 5” value is given as “stable”. In data set [5], this molecule gave an IC50 of 86.5 µM and a Ki of 27 µM.

Regarding `CC(C(=O)c1cccc(Cl)c1)N(C)C(C)(C)C` (racemic) [Compound 4, Rac-N-methyl bupropion], the “Primary product detected in media SGF” value in data set [6] is reported as “<LOD”. The IC50 at Nicotinic acetylcholine (Nicotinic acetylcholine) is 71.6 µM; in data set [1] it was 57.9 µM; in data set [11], above 100 µM; in data set [12], 3.71 µM; in data set [5] it was 39.3 µM. The Ki at Nicotinic acetylcholine (Nicotinic acetylcholine, Cheng and Prusoff) was 49.2 µM; in data set [1], 54.4 µM; in [12] it was 2.95 µM; in data set [5] it was 12.3 µM. Also, the “activity at the nicotinic acetylcholine receptors, in words” value with Nicotinic acetylcholine (compared with bupropion) is “more active than bupropion”. For the same molecule, the “Vmax of bupropion formation” value turned out to be 900.4 ± 73.8 pmol/min/mg HLM in data set [7] and 900.4 ± 74 pmol/min/mg HLM in data set [7] (listed as N-methylbupropion). For the same molecule, the “Primary product detected in media PHP” value in data set [8] is listed as “<LOD”. Moreover, the “Primary product detected in media SIF” value in data set [9] was “<LOD”. Further, the “effect on the serotonin transporter system, in words” value in data set [10] is reported as “little effect”. The results for the “nH (Hill coefficient)” value in [1] and in data set [12] (DAT) were 0.764 and 0.924, respectively. For the same molecule, in data set [1] (compared with bupropion), the “activity as norepinephrine reuptake inhibitor, in words” value is “less active than bupropion”. For the same molecule, in [12] (compared with bupropion), the “activity as dopamine reuptake inhibitor, in words” value is recorded as “less active than bupropion”. Further, the “Primary product detected in media HIM” value in [13] is on record as “bupropion was detected”. Further, the “Primary product detected in media HLM” value in data set [14] was “bupropion was detected”. Besides, the “aqueous degradation rate above pH 5” value in data set [4] (above pH 5) is given as “degraded faster than bupropion”. In addition, the “aqueous degradation rate above pH 12” value in [4] is given as “rate of degradation decreased quite dramatically”. The “aqueous stability / degradation rate below pH 5” value in [4] was “stable”.

The record behind these values is article PMC4035770 (Pharmaceuticals, 2014).
